Measured values taken from US20250154161A1, “CRYSTAL FORMS OF THIENOIMIDAZOLE COMPOUND AND PREPARATION METHOD THEREOF” (HANGZHOU SCIWIND BIOSCIENCES CO., LTD., priority 2021, published 2025).
Blank lines part the entries; values can stand above or below the compound they belong to.

Assays:
[1] = Solid stability of crystal forms under accelerated conditions, XRPD detection; format: physicochemical; conditions: for Crystal form: 75% RH, open, XRPD detection
GLP-1 receptor = biological target: T1, GLP-1 receptor (Homo sapiens, UniProt P43220); assay: Detection of cell viability in vitro (cAMP detection in GLP-1 cells); format: cell-based
T1 construct: host or cells: 'GLP-1 cell' constructed cell strain
Protocol: OptiPlate-384, White, PerkinElmer (Cat #6007290); 384 well plate for Echo, Labcyte (Cat #P-05525); EnVision, PerkinElmer; Vi-cell counter, Beckman (Cat # Vi-CELL™ XR Cell Viability Analyzer)
The compound was prepared to a working concentration of […] with DMSO. In this test, the use amount of each sample is 5 μL.
Preparation of cAMP detection reagent: 250 μL cAMP-D2, and 250 μL anti-cAMP cryptate reagent were added to 4 mL lysis buffer, then mixing well gently.
The compound to be tested was diluted 3 times at 10 points, the initial concentration was 30 M; and the dilution was completed by Bravo plateform. […]
• 1) A GLP-1 cell cryopreservation tube was quickly thawed in warm water at 37° C. 2) The cell suspension was transferred to a 15 mL Transfer centrifuge tube, then gently rinsing with 10 mL HBSS. • 3) The centrifuge tube was centrifuged at room temperature and 1000 rpm for 1 min. • 4) The supernatant was discarded. • 5) The cells at the bottom were gently dispersed and washed with 10 mL HBSS, then centrifuging to obtain cell sediment, and resuspending the cells with experimental buffer. • 6) Cell density and viability were measured by Vi-cell counter. • 7) GLP-1 cells were diluted with experimental buffer to a concentration of 2.0*10^5/mL. • 8) 100 nL of diluted cell suspension was transferred into OptiPlate-384 plate. • 9) The cells were incubated at room temperature for 30 min. […]

[2] = Study on DMPK in rats (oral, single administration); format: in vivo; conditions: rat, male SD rats, oral 5 mg/kg, plasma
Protocol: Male SD rats were used as test animals. After single administration, the plasma concentration of the compound was measured, and the pharmacokinetic behavior was evaluated.
Two healthy adult male SD rats were selected as the oral group. In the oral group, the vehicle was 20% PEG400/10% solutol/70% water; after the compound to be tested was mixed with the vehicle, 0.5 mg/mL clear solution was prepared by vortex and ultrasound. After oral administration at 5 mg/kg, the whole blood of rat was collected for a certain period of time to prepare plasma; then the drug concentration was analyzed by LC-MS/MS method, and the pharmacokinetic parameters were calculated by Phoenix WinNonlin software (Pharsight, USA).

[3] = Study on DMPK in cynomolgus monkeys (oral, single administration); format: in vivo; conditions: cynomolgus monkey, male cynomolgus monkeys, oral 20 mg/kg, plasma
Protocol: Male cynomolgus monkeys were used as test animals. After single administration, the plasma concentration of the compound was measured, and the pharmacokinetic behavior was evaluated.
Two healthy male cynomolgus monkeys were selected as a group. In the oral group, the vehicle was 20% HP-β-CD aqueous solution; after the compound to be tested was mixed with the vehicle, 4 mg/mL approximately clear solution was prepared by vortex and ultrasound. After oral administration at 20 mg/kg, the whole blood of cynomolgus monkey was collected for a certain period of time to prepare plasma; then the drug concentration was analyzed by LC-MS/MS method, and the pharmacokinetic parameters were calculated by Phoenix WinNonlin software (Pharsight, USA).

[4] = Dynamic vapor sorption (DVS) hygroscopicity study of the crystal forms; format: physicochemical
Protocol: The dynamic vapor sorption (DVS) curve is collected on the DVS Intrinsic plus by SMS (surface measurement systems). The relative humidity at 25° C. is corrected by the deliquescence point of lithium chloride (LiCl), magnesium nitrate [Mg(NO3)2] and potassium chloride (KCl).
The test parameters are as follows:
The hygroscopicity evaluation is classified as follows:
The specific results are shown as the DVS spectrums in FIGS. 27-29.

[5] = Crystal form change after drying the sample open at room temperature overnight; format: physicochemical
Protocol: About 15 mg of crystal Form A of formula (II-1) compound was weighed to add into a 3 mL vial, then adding 1.0 mL MeOH/MTBE (1:1, v/v), stirring at 50° C. for equilibrating about 1 hour, and then filtering to obtain the supernatant.
About 15 mg of crystal Form A of formula (II-1) compound was weighed to add into a 20 mL vial, then dissolving the solids completely with 0.2-1.0 mL MeOH (filtering out the undissolved sample by 0.45 m PTFE filter to obtain clear solution).

[6] = read-out: F % (oral bioavailability)

T1 sequence (P43220 24-463): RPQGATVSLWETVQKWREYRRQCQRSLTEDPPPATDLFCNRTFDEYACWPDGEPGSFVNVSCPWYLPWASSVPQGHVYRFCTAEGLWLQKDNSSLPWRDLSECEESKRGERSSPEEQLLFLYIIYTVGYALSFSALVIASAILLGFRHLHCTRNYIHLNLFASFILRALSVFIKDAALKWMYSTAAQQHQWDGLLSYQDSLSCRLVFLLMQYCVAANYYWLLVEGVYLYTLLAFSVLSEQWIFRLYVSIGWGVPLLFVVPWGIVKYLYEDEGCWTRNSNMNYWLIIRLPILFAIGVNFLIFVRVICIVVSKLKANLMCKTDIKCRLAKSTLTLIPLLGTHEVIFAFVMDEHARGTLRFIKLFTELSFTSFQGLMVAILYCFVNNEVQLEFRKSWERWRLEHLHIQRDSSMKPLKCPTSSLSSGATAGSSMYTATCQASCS

Crystal form ([1]; 40° C., Day 5): crystal Form E
Crystal form ([1]; 40° C., Day 15): crystal Form E
Crystal form ([1]; 40° C., Month 1): crystal Form E
Crystal form ([1]; 40° C., Month 2): crystal Form E
Crystal form ([1]; 60° C., Day 5): crystal Form E
Crystal form ([1]; 60° C., Day 15): crystal Form E
Crystal form ([1]; 60° C., Month 1): crystal Form E
Crystal form ([1]; 60° C., Month 2): crystal Form E
solid stability (conclusion) ([1]; fully exposed, 40° C./75% RH and 60° C./75% RH, XRPD compared with day 0): good stability
Compound: O=C(O)c1cc2c(nc(CN3CC=C(c4cccc(OCc5ccc(Cl)cc5F)n4)CC3)n2C[C@@H]2CCO2)s1 [crystal Form E]

Cmax [2]: 85.5 nM
AUC(0-t) ([2]; 24-hour oral exposure): 0.234 µM·h
bioavailability [2, 6]: 6.6%
Cmax [3]: 1420 nM
AUC(0-t) ([3]; 24-hour oral exposure): 12.8 µM·h
bioavailability [3, 6]: 22.1%
Compound: O=C(O)c1cc2c(nc(CN3CC=C(c4cccc(OCc5ccc(Cl)cc5F)n4)CC3)n2C[C@@H]2CCO2)s1 [compound of formula (I)]
EC50 (GLP-1 receptor; GLP-1 target in HEK293 host cell, cAMP detection, read-out: Human-GLP1, EC50): 0.37 nM
ability to stimulate GLP-1 receptor (GLP-1 receptor; cAMP, GLP-1 cells): better ability to stimulate GLP-1 receptor

crystal form before and after adsorption and desorption [4]: changes
hygroscopic weight gain ([4]; 25° C. and 80% RH): 2.20%
Compound: O=C(O)c1cc2c(nc(CN3CC=C(c4cccc(OCc5ccc(Cl)cc5F)n4)CC3)n2C[C@@H]2CCO2)s1 [crystal Form A]

crystal form after drying open at room temperature overnight [5]: transformed into crystal Form E
Compound: O=C(O)c1cc2c(nc(CN3CC=C(c4cccc(OCc5ccc(Cl)cc5F)n4)CC3)n2C[C@@H]2CCO2)s1 [crystal Form B]
